Molecules are shown by their SMILES.

The target of assay [1] is PRC2 enzyme (Homo sapiens (Human), UniProt O75530). Briefly: PRC2 enzyme activity, TR-FRET method. It is filed as biochemical. The method in brief: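 Enzyme preincubated with compound 30 min at room temperature; reaction started with biotin-labeled histone H3 peptide and SAM, run 4 h at room temperature.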
The test system of assay [2] is Pfeiffer cells. Briefly: Pfeiffer cell growth inhibition in a long term (11 days), CellTiter-Glo. The format is cell-based, Human. The settings on record: Homo sapiens, 264 h, 11 days, read-out: Experiment on Pfeiffer cell growth inhibition in a long term (11 days IC50). The method in brief: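 Exponentially growing cells seeded at 1*10E5 cells/mL and treated the same day with a concentration range. Media and compound were refreshed at days 4 and 7. Viability was read by CellTiter-Glo after 11 days and GI50 values were derived.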
A general note: In ATP-based viability assays light output follows the ATP content of the culture.

Sequence of PRC2 enzyme (O75530 whole entry): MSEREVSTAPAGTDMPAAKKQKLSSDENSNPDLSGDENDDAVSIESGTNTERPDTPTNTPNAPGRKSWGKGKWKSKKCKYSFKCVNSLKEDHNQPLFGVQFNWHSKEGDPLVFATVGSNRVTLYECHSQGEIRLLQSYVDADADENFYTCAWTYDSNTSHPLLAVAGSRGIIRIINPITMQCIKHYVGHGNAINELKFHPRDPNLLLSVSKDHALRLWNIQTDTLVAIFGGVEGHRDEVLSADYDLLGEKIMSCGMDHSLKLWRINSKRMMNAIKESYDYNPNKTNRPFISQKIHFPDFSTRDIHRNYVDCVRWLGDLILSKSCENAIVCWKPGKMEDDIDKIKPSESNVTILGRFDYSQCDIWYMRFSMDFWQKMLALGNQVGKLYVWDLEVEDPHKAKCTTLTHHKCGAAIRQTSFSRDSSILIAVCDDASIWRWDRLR
Sequence of PRC2 enzyme (Q15910 whole entry partner): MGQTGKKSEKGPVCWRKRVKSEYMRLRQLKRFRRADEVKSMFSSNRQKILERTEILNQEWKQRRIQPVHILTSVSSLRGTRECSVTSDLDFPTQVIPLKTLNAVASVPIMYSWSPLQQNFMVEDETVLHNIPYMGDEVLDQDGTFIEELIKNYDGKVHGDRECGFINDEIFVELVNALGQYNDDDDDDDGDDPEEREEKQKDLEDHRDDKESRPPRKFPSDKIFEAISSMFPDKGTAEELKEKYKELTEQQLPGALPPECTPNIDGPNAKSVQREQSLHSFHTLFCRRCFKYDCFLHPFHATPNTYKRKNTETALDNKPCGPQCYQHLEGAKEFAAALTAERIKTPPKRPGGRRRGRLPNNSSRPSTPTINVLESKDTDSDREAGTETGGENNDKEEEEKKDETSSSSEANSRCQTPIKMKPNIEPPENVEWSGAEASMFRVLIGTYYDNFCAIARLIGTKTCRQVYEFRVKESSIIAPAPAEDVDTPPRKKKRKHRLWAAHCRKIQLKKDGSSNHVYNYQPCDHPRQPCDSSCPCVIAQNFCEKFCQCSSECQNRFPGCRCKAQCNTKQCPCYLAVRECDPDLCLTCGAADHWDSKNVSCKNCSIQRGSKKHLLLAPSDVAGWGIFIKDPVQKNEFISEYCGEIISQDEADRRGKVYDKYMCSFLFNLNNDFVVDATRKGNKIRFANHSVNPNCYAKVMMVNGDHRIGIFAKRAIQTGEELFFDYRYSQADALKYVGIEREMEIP
Sequence of PRC2 enzyme (Q15022 whole entry partner): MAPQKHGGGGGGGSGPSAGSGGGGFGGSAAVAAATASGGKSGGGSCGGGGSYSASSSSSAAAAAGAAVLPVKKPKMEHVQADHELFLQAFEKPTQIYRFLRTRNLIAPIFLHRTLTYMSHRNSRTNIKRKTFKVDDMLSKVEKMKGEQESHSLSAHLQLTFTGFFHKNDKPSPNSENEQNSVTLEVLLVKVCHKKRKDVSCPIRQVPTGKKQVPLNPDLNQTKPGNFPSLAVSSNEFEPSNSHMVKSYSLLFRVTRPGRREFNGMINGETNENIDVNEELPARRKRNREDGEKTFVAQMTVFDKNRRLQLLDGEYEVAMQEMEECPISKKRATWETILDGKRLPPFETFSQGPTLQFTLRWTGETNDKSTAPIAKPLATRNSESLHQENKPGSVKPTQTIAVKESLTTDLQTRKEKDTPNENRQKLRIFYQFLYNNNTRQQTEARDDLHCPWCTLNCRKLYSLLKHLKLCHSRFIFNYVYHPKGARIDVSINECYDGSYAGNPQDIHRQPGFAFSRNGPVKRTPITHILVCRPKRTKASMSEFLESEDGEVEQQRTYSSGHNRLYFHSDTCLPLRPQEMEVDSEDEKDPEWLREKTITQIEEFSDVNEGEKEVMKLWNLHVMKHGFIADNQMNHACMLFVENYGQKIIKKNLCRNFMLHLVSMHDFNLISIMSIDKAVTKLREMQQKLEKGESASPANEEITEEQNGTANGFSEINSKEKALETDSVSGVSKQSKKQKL

Usually IC50 stands for the midpoint of a concentration-inhibition curve. In the case of `CS(=O)(=O)N1CC=C(c2cnc(NCc3c(F)ccc4c3CCO4)n3cnnc23)CC1` [E-Y13], the results for the IC50 in assay [1] and in assay [2] were 19 nM and 3.2 nM, respectively.

For the origin of these results see US11013745B2, “Triazolopyrimidine, triazolopyridine compounds, and the composition thereof for treating PRC2-mediated diseases” (SHANGHAI INSTITUTE OF MATERIA MEDICA, CHINESE ACADEMY OF …, priority 2017, dated 2021).
